Each block holds one compound with its values, some of them ahead of it.
Tests used:
[1] = molecular target: T1, MMP-7 (Homo sapiens, UniProt P09237); assay: Fluorogenic substrate enzyme inhibition assay, MMP-7; format: biochemical; conditions: 25°C, HEPES pH 7.5, 5 μM TCEP, fluorogenic substrate 1 μM
T1 construct: gift of Dr. Harold E. Van Wart (Syntex, Palo Alto, CA)
T1 sequence (P09237 95-267): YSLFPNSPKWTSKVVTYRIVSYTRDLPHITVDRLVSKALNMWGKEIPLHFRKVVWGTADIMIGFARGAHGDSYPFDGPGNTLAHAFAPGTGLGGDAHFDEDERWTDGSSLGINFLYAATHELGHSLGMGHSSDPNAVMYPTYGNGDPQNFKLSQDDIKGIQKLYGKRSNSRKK
Method: (§1) Enzymatic assays to characterize inhibitor potency were performed as previously described. Assays were performed at 25°C in 50 mM 4-(2-hydroxyethyl)-1-piperazineethanesulfonic acid (HEPES) buffer at pH 7.5 with 10 mM CaCl2, 200 mM NaCl, 0.01% (w/v) Brij-35, and 5 μM tris(2-carboxyethyl)[…] (TCEP). The fluorogenic substrate Mca-PLGLDpa-AR-NH2 (M-1895, Bachem, Torrance, CA) was used at a concentration of 1 μM as the substrate to measure inhibition constants. Briefly, 10 μL of inhibitor solution or control (100% DMSO), 176 μL of assay buffer, and 10 μL of enzyme solution were mixed and incubated for 30 min prior to initiation of the assay, which was accomplished by adding 4 μL of substrate solution, 5% final concentration DMSO. The release of product was monitored by fluorescence (λex = 328 nm, λem = 393 nm) with a PerkinElmer luminescence spectrophotometer LS50B (FL WinLab v3.0) connected to a temperature-controlled water bath. Inhibitor potency was determined via comparison of relative rates (vi/vo).

[2] = tested on: hMSCs; assay: Adipogenic differentiation, lipid accumulation by Oil Red-O staining; format: cell-based, human; conditions: 10 μM, 21 days differentiation, vs DMSO control
Method: (§2) Human MSCs were seeded into 6-well plates at 1,000 cells/cm^2. Upon reaching 70–80% confluence hMSCs were induced towards an adipogenic lineage by adding dexamethasone (0.5 μM), 3-isobutyl-1-methylxanthine ([…]), and indomethacin (50 μM) to the culture medium. Tested compounds were dissolved in DMSO and added to treatment wells during differentiation to a final total concentration of 10 μM with DMSO concentrations remaining constant (0.125% or 0.25% v/v) between conditions. Wells treated with appropriate concentrations of DMSO alone served as controls. Media and treatments were refreshed every 72 h for 21 days.
(§3) After 21 days of differentiation, hMSCs were washed with PBS and fixed with neutral buffered formalin for 1 h. Cells were then stained with 0.3% (w/v) Oil Red-O in 3:2 100% isopropyl alcohol to PBS for 20 min, washed with PBS, stained with 5 μg/mL Hoechst 33342 for 5 min, then washed again. Cultures were later imaged with an epifluorescence capable Nikon TE2000-E2 Eclipse microscope. Relative staining was determined with ImageJ (version 1.46c, National Institutes of Health, Bethesda, MD) by standardizing the area stained in each image to nuclei number prior to normalizing against DMSO treated controls.

[3] = tested on: hMSCs; assay: Adipogenic differentiation, lipid accumulation, co-treatment with T0070907; format: cell-based, human; conditions: 10 μM compound with 10 μM T0070907
Method: as §2, §3

[4] = molecular target: T2, MMP-14 (Homo sapiens, UniProt P50281); assay: Fluorogenic substrate enzyme inhibition assay, MMP-14; format: biochemical; conditions: 25°C, HEPES pH 7.5, 5 μM TCEP, fluorogenic substrate 1 μM
T2 construct: gift of Dr. Harald Tscheche (Bielefeld University, Bielefeld, Germany)
Method: as §1

[5] = molecular target: T3, MMP-9 (Homo sapiens, UniProt P14780); assay: Fluorogenic substrate enzyme inhibition assay, MMP-9; format: biochemical; conditions: 25°C, HEPES pH 7.5, 5 μM TCEP, fluorogenic substrate 1 μM
T3 construct: human neutrophil gelatinase B was purified from human blood; from tissue; host or cells: human blood (neutrophils)
Method: as §1, with “The fluorogenic substrate Mca-PLGLDpa-AR-NH2 (M-1895, Bachem, Torrance, CA) was used at a concentration of 1 μM as the substrate to measure inhibition constants.” left out, “The release of product was monitored by fluorescence (λex = 328 nm, λem = 393 nm) with a PerkinElmer luminescence spectrophotometer LS50B (FL WinLab v3.0) connected to a temperature-controlled water bath.” left out

[6] = tested on: hMSCs; assay: Cytotoxicity assay (Trypan Blue, cell count); format: cell-based, human; conditions: 0–100 μM, 24 h
Method: Mercaptosulfonamide MMPIs were dissolved in 100% DMSO to generate 8 mM stock solutions and subsequently diluted with αMEM, while maintaining the final DMSO concentration at 1.25% (v/v). Media supplemented with a panel of final inhibitor concentrations ranging from 0–100 μM were then added to 70–80% confluent hMSC cultures and incubated for 24 h. At the end of treatment, inhibitor-conditioned media was removed and cells were washed with phosphate buffered saline (PBS) (pH 7.4) prior to being trypsinized (0.25% Trypsin, GE Healthcare), pelleted, and resuspended in 1 mL of fresh αMEM. Aliquots of the cell suspension for each condition were diluted 1:1 with 0.4% (w/v) Trypan Blue and counted with a hemocytometer. Relative cytotoxicity was determined by normalizing cell number for each condition against its respective control. A concentration was arbitrarily deemed cytotoxic if it produced a statistically significant reduction in cell number when compared to DMSO controls.

[7] = molecular target: T4, MMP-2 (Homo sapiens, UniProt P08253); assay: Fluorogenic substrate enzyme inhibition assay, MMP-2; format: biochemical; conditions: 25°C, HEPES pH 7.5, 5 μM TCEP, fluorogenic substrate 1 μM
T4 construct: gift of Dr. L. Jack Windsor (Indiana University, Indianapolis, IN)
T4 sequence (P08253 110-660): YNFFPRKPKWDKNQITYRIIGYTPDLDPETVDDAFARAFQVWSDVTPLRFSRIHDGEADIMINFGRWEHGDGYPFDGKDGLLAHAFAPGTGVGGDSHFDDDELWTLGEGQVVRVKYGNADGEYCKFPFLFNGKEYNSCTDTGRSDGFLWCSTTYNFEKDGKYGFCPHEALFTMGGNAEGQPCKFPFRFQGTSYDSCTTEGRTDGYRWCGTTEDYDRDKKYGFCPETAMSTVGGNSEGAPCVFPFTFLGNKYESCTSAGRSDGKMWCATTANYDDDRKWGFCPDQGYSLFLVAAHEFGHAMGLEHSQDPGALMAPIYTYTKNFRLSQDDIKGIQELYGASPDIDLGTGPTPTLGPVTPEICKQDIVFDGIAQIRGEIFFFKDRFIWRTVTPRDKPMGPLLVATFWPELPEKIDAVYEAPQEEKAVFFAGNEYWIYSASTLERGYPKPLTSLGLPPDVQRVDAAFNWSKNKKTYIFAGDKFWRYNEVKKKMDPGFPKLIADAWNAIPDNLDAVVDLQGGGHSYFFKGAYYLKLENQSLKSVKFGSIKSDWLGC
Method: as §1, with “The fluorogenic substrate Mca-PLGLDpa-AR-NH2 (M-1895, Bachem, Torrance, CA) was used at a concentration of 1 μM as the substrate to measure inhibition constants.” left out, “The release of product was monitored by fluorescence (λex = 328 nm, λem = 393 nm) with a PerkinElmer luminescence spectrophotometer LS50B (FL WinLab v3.0) connected to a temperature-controlled water bath.” left out

[8] = molecular target: T5, MMP-1 (Homo sapiens, UniProt P03956); assay: Fluorogenic substrate enzyme inhibition assay, MMP-1; format: biochemical; conditions: 25°C, HEPES pH 7.5, 5 μM TCEP, fluorogenic substrate 1 μM
T5 construct: gift of Dr. L. Jack Windsor (Indiana University, Indianapolis, IN)
T5 sequence (P03956 100-469): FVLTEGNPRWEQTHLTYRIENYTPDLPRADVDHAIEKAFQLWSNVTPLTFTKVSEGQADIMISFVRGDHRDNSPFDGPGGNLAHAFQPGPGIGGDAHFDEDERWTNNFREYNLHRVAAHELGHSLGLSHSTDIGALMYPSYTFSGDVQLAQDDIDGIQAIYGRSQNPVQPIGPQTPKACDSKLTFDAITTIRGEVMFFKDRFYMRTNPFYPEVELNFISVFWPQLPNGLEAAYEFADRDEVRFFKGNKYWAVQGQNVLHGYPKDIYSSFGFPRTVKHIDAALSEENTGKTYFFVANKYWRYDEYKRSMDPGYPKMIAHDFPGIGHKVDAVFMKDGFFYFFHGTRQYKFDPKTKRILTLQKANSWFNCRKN
Method: as §1, with “The fluorogenic substrate Mca-PLGLDpa-AR-NH2 (M-1895, Bachem, Torrance, CA) was used at a concentration of 1 μM as the substrate to measure inhibition constants.” left out, “The release of product was monitored by fluorescence (λex = 328 nm, λem = 393 nm) with a PerkinElmer luminescence spectrophotometer LS50B (FL WinLab v3.0) connected to a temperature-controlled water bath.” left out

[9] = tested on: hMSCs; assay: Relative cell number via nuclei counts in differentiating hMSCs; format: cell-based, human
Method: as §3
Fig 5 Co-treatment of differentiating hMSCs with T0070907 and MMPIs. […] DMSO vehicle was maintained consistent between treatments and used as control. (B) Relative cell number was determined via nuclei counts. […] Scale bar 150 μm. ** P < 0.05, ++ P < 0.05, ## P < 0.05 compared to T0070907.

[10] = tested on: MMP-2; assay: qPCR of MMP-2 gene expression in hMSCs undergoing adipogenesis; format: cell-based, human; conditions: 10 μM
Method: (§4) MMPI treated and untreated hMSCs were collected every 72 h over 21 days of differentiation. Total RNA from each time point was isolated using the E.Z.N.A. Total RNA Kit I (Omega Bio-Tek, Norcross, GA) and purified with the DNA-free RNA Kit (Zymo Research, Irvine, CA). RNA was resuspended in nuclease-free water, with concentrations determined via a Nanodrop UV-Vis Spectrophotometer (ThermoFisher Scientific, Waltham, MA). 500 ng of RNA was used for cDNA synthesis using qScript cDNA SuperMix (Quanta Bioscience, Gaitherburg, MD). 100 ng/μL cDNA was used as template for quantitative PCR on a 7500 Fast Real Time PCR system (Life Technologies, Carlsbad, CA) using PerfeCTa SYBR® Green SuperMix, Low Rox (Quanta Bioscience). Relative gene expression was determined via the 2^^(-ΔΔCt) method. Expression levels of PPARγ (peroxisome-proliferator activated receptor gamma) were determined. β-Actin was used as an endogenous control. Primers were designed with Primer-BLAST (NCBI) and purchased from Integrated DNA Technologies (IDT, Coralville, IA). MMP-2: forward: 5’-[…]-3’ reverse: 5’-[…]-3’; MMP-14: forward: 5’-[…]-3’ Reverse: 5’-[…]-3’; PPARγ: forward: 5’-[…]-3’ reverse: 5’-[…]-3’; β-Actin: forward: 5’-[…]-3’ reverse: 5’-[…]-3’.

[11] = tested on: PPARγ; assay: qPCR of PPARγ gene expression in hMSCs undergoing adipogenesis; format: cell-based, human; conditions: 10 μM, 21 days, harvested every 72 h, vs DMSO controls
Method: as §4

[12] = tested on: MMP-14; assay: qPCR of MMP-14 gene expression in hMSCs undergoing adipogenesis; format: cell-based, human; conditions: 10 μM
Method: as §4

[13] = parameters: method as in PMID 23631440; conditions: standard enzyme inhibition assay conditions; cited from earlier work
[14] = tested on: MDA-MB-231 breast cancer cells; parameters: method as in PMID 21498701; conditions: treatments up to 20 μM, without induction of apoptosis; cited from earlier work
[15] = tested on: PPARγ; parameters: method as in PMID 11877444; conditions: read-out: apparent IC50; cited from earlier work
[16] = tested on: MCF-7 breast cancer cells; parameters: method as in PMID 21498701; conditions: treatments up to 20 μM, without induction of apoptosis; cited from earlier work
[17] = parameters: method as in PMID 19752200; conditions: up to 50 μM; cited from earlier work
[18] = Day 21, compared to the negative control

T3 sequence (P14780 94-707): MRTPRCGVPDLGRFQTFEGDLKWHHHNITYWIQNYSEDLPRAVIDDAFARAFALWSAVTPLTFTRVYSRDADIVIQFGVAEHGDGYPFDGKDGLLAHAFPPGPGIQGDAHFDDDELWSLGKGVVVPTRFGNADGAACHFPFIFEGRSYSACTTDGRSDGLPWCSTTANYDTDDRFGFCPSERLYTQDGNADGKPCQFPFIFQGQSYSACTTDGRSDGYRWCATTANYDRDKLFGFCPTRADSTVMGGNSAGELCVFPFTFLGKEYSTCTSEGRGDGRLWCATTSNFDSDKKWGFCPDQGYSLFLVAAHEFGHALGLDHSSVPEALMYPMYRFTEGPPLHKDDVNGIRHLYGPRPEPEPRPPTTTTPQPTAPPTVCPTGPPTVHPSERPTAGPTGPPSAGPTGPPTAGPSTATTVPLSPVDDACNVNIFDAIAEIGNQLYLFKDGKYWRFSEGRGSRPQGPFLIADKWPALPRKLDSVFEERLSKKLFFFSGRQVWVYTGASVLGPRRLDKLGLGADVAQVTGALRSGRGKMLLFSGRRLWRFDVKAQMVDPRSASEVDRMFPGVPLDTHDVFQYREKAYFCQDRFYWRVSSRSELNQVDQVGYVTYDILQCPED

SMILES: CNC(=O)[C@H](Cc1c[nH]c2ccccc12)NC(=O)[C@@H](CC(=O)NO)CC(C)C [GM6001, reference compound]
IC50 [1]: 2 ± 1.9 nM | Reduction of lipid accumulation [2]: ~20% | Further reduction of lipid accumulation on co-treatment with T0070907 [3]: ~ 20% | IC50 [4]: 0.5 ± 0.1 nM

SMILES: O=C(Nc1ccncc1)c1cc([N+](=O)[O-])ccc1Cl [T0070907]
Reduction of relative cell number ([9]; 10 μM, nuclei counts): approximately 30% | Proliferation of MDA-MB-231 cells [14]: […] | Reduction of lipid accumulation [2]: 20% | IC50 [15]: […] | Proliferation of MCF-7 cells [16]: […] | Cytotoxicity [17]: minimally cytotoxic

SMILES: Cc1c(C)c2c(c(C)c1O)CCC(C)(COc1ccc(CC3SC(=O)NC3=O)cc1)O2 (centres unmarked) [Troglitazone]
Increase of lipid accumulation [2]: approximately 80%

Continued, in another order:

IC50 [5]: > 200000 nM | IC50 MMP-9 [5]: almost undetectable inhibitory activity | IC50 [1]: > 200000 nM | IC50 MMP-7 [1]: almost undetectable inhibitory activity | IC50 [7]: > 100000 nM | IC50 MMP-2 [7]: almost undetectable inhibitory activity | IC50 [4]: > 200000 nM | IC50 MMP-14 [4]: almost undetectable inhibitory activity | IC50 [8]: > 200000 nM | IC50 MMP-1 [8]: almost undetectable inhibitory activity
SMILES: NCCCCCC(=O)N1C[C@H](NS(=O)(=O)c2ccc(Oc3ccccc3)cc2)[C@@H](O)C1 (relative stereo) [YHJ-7-82]
Cytotoxicity [6]: minimal cytotoxicity across all tested concentrations | Reduction of lipid accumulation [2]: did not produce a significant response | Further reduction of lipid accumulation on co-treatment with T0070907 [3]: did not provide any additional reductions

IC50 [5]: 87 ± 9 nM | IC50 [1]: 2400 ± 720 nM | IC50 [7]: 5.5 ± 4.2 nM | IC50 [4]: 4.3 ± 0.7 nM | IC50 [8]: 1200 ± 370 nM
SMILES: NCCCCCC(=O)N1C[C@H](NS(=O)(=O)c2ccc(Oc3ccccc3)cc2)[C@@H](S)C1 (relative stereo) [YHJ-7-52]
Concentration producing a significant reduction in cell number [6]: 100 µM | Further reduction of cell number on co-treatment with T0070907 ([9]; 10 μM compound with 10 μM T0070907): did not result in further cell number reductions | MMP-2 gene expression level on Day 21 [10, 18]: significantly higher | MMP-2 gene expression level ([10]; over 21 days, vs DMSO control): does not affect | PPARγ expression [11]: significantly suppressed PPARγ expression after day 9 | MMP-14 gene expression level on Day 21 [12, 18]: significantly higher | MMP-14 gene expression level ([12]; over 21 days, vs DMSO control): does not affect | Further reduction of lipid accumulation on co-treatment with T0070907 [3]: ~ 20% | Stability [13]: lower stability than the hydroxamate MMPI GM6001
